Source: PMC6886798, “Expression of myeloid Src-family kinases is associated with poor prognosis in AML and influences Flt3-ITD kinase inhibitor acquired resistance” (PLoS ONE, 2019)

Experiments:
Test in all cases: KINOMEscan
Type in all cases: binding
Conditions in all cases: 1.0 µM
[1] = target: T1, ABL1(M351T)-phosphorylated (Homo sapiens, UniProt P00519, M351T)
T1 construct: purchased Eurofins/DiscoverX KINOMEscan scanMAX
Description: (§1) Kinase retention to the immobilized ligand is then measured using quantitative real-time PCR for each kinase-specific DNA barcode.

[2] = target: T2, ABL1(Q252H)-nonphosphorylated (Homo sapiens, UniProt P00519, Q252H)
T2 construct: purchased Eurofins/DiscoverX KINOMEscan scanMAX
Description: as §1

ACVR1B = target: T3, ACVR1B (Homo sapiens, UniProt P36896)
T3 construct: purchased Eurofins/DiscoverX KINOMEscan scanMAX
Description: as §1

ACVRL1 = target: T4, ACVRL1 (Homo sapiens, UniProt P37023)
T4 construct: purchased Eurofins/DiscoverX KINOMEscan scanMAX
Description: as §1

ALK = target: T5, ALK (Homo sapiens, UniProt Q9UM73)
T5 construct: purchased Eurofins/DiscoverX KINOMEscan scanMAX
T5 sequence (Q9UM73 19-1620): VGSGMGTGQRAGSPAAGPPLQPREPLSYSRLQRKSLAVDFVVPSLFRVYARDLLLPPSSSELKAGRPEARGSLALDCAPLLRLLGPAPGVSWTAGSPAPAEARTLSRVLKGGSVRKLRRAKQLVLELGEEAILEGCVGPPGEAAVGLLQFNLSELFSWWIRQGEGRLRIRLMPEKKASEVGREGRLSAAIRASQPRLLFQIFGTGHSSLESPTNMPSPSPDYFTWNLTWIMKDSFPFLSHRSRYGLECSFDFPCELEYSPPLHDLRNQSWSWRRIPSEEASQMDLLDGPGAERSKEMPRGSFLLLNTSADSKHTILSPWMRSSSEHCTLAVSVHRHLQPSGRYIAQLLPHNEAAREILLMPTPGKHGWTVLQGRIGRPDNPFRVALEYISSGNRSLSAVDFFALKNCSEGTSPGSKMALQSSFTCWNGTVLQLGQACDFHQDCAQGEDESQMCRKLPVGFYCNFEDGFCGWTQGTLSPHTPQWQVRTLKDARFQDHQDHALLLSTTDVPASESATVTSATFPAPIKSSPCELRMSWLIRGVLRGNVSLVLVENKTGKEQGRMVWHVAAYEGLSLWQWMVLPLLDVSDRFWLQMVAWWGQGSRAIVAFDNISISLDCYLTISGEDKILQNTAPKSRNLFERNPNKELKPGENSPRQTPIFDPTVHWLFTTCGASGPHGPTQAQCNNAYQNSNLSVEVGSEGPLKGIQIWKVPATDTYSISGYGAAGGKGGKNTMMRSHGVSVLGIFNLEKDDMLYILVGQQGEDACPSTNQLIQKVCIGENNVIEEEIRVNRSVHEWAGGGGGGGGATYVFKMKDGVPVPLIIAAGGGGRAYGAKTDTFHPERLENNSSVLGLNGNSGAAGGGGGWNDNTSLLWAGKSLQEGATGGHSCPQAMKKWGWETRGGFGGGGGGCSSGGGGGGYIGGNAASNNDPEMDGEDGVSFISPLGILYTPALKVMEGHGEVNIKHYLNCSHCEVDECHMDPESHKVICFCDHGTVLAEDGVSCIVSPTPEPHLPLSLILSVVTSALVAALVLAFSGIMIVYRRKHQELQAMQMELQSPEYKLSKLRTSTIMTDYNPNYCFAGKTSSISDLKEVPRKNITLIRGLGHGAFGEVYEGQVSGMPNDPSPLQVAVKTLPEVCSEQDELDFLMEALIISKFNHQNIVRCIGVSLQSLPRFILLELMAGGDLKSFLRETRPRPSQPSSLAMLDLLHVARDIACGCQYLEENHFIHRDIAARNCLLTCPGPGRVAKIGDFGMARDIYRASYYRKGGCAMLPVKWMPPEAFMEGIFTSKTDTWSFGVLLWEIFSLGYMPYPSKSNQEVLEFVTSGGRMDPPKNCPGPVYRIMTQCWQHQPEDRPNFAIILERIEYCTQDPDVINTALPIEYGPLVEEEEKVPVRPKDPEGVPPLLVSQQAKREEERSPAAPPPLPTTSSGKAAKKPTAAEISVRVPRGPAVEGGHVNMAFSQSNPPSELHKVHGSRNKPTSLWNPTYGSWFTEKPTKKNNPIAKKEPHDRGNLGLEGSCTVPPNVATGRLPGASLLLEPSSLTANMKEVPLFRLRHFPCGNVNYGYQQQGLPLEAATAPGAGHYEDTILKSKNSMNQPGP
Description: as §1

ASK2 = target: T6, ASK2 (Homo sapiens, UniProt O95382)
T6 construct: purchased Eurofins/DiscoverX KINOMEscan scanMAX
Description: as §1

BMPR1A = target: T7, BMPR1A (Homo sapiens, UniProt P36894)
T7 construct: purchased Eurofins/DiscoverX KINOMEscan scanMAX
T7 sequence (P36894 24-532): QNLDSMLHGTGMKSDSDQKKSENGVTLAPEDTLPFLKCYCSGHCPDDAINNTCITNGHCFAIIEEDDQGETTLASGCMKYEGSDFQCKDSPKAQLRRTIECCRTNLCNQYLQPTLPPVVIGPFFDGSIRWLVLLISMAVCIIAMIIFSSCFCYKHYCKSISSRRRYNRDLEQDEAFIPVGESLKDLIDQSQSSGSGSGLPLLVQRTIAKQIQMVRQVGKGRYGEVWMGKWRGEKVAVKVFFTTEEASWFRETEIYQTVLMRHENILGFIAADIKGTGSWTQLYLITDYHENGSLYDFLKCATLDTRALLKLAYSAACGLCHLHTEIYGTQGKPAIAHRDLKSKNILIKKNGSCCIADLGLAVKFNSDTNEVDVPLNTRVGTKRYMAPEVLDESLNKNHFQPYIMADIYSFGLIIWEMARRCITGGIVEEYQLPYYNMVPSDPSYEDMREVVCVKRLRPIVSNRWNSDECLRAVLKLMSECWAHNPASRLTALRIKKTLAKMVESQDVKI
Description: as §1

BMPR1B = target: T8, BMPR1B (Homo sapiens, UniProt O00238)
T8 construct: purchased Eurofins/DiscoverX KINOMEscan scanMAX
Description: as §1

BMX = target: T9, BMX (Homo sapiens, UniProt P51813)
T9 construct: purchased Eurofins/DiscoverX KINOMEscan scanMAX
Description: as §1

BRAF = target: T10, BRAF (Homo sapiens, UniProt P15056)
T10 construct: purchased Eurofins/DiscoverX KINOMEscan scanMAX
Description: as §1

CAMKK1 = target: T11, CAMKK1 (Homo sapiens, UniProt Q8N5S9)
T11 construct: purchased Eurofins/DiscoverX KINOMEscan scanMAX
Description: as §1

CDK7 = target: T12, CDK7 (Homo sapiens, UniProt P50613)
T12 construct: purchased Eurofins/DiscoverX KINOMEscan scanMAX
Description: as §1

CIT = target: T13, CIT (Homo sapiens, UniProt O14578)
T13 construct: purchased Eurofins/DiscoverX KINOMEscan scanMAX
Description: as §1

CLK4 = target: T14, CLK4 (Homo sapiens, UniProt Q9HAZ1)
T14 construct: purchased Eurofins/DiscoverX KINOMEscan scanMAX
Description: as §1

CSK = target: T15, CSK (Homo sapiens, UniProt P41240)
T15 construct: purchased Eurofins/DiscoverX KINOMEscan scanMAX
Description: as §1

CSNK1E = target: T16, CSNK1E (Homo sapiens, UniProt P49674)
T16 construct: purchased Eurofins/DiscoverX KINOMEscan scanMAX
Description: as §1

CSNK1G3 = target: T17, CSNK1G3 (Homo sapiens, UniProt Q9Y6M4)
T17 construct: purchased Eurofins/DiscoverX KINOMEscan scanMAX
Description: as §1

DLK = target: T18, DLK (Homo sapiens, UniProt Q12852)
T18 construct: purchased Eurofins/DiscoverX KINOMEscan scanMAX
Description: as §1

ERK1 = target: T19, ERK1 (Homo sapiens, UniProt P27361)
T19 construct: purchased Eurofins/DiscoverX KINOMEscan scanMAX
Description: as §1

FGFR4 = target: T20, FGFR4 (Homo sapiens, UniProt P22455)
T20 construct: purchased Eurofins/DiscoverX KINOMEscan scanMAX
Description: as §1

HASPIN = target: T21, HASPIN (Homo sapiens, UniProt Q8TF76)
T21 construct: purchased Eurofins/DiscoverX KINOMEscan scanMAX
Description: as §1

[3] = target: T22, JAK1(JH2domain-pseudokinase) (Homo sapiens, UniProt P23458)
T22 construct: JAK1(JH2domain-pseudokinase); purchased Eurofins/DiscoverX KINOMEscan scanMAX
Description: as §1

LIMK2 = target: T23, LIMK2 (Homo sapiens, UniProt P53671)
T23 construct: purchased Eurofins/DiscoverX KINOMEscan scanMAX
Description: as §1

LRRK2(G2019S) = target: T24, LRRK2(G2019S) (Homo sapiens, UniProt Q5S007, G2019S)
T24 construct: purchased Eurofins/DiscoverX KINOMEscan scanMAX
T24 sequence (Q5S007 whole entry G2019S): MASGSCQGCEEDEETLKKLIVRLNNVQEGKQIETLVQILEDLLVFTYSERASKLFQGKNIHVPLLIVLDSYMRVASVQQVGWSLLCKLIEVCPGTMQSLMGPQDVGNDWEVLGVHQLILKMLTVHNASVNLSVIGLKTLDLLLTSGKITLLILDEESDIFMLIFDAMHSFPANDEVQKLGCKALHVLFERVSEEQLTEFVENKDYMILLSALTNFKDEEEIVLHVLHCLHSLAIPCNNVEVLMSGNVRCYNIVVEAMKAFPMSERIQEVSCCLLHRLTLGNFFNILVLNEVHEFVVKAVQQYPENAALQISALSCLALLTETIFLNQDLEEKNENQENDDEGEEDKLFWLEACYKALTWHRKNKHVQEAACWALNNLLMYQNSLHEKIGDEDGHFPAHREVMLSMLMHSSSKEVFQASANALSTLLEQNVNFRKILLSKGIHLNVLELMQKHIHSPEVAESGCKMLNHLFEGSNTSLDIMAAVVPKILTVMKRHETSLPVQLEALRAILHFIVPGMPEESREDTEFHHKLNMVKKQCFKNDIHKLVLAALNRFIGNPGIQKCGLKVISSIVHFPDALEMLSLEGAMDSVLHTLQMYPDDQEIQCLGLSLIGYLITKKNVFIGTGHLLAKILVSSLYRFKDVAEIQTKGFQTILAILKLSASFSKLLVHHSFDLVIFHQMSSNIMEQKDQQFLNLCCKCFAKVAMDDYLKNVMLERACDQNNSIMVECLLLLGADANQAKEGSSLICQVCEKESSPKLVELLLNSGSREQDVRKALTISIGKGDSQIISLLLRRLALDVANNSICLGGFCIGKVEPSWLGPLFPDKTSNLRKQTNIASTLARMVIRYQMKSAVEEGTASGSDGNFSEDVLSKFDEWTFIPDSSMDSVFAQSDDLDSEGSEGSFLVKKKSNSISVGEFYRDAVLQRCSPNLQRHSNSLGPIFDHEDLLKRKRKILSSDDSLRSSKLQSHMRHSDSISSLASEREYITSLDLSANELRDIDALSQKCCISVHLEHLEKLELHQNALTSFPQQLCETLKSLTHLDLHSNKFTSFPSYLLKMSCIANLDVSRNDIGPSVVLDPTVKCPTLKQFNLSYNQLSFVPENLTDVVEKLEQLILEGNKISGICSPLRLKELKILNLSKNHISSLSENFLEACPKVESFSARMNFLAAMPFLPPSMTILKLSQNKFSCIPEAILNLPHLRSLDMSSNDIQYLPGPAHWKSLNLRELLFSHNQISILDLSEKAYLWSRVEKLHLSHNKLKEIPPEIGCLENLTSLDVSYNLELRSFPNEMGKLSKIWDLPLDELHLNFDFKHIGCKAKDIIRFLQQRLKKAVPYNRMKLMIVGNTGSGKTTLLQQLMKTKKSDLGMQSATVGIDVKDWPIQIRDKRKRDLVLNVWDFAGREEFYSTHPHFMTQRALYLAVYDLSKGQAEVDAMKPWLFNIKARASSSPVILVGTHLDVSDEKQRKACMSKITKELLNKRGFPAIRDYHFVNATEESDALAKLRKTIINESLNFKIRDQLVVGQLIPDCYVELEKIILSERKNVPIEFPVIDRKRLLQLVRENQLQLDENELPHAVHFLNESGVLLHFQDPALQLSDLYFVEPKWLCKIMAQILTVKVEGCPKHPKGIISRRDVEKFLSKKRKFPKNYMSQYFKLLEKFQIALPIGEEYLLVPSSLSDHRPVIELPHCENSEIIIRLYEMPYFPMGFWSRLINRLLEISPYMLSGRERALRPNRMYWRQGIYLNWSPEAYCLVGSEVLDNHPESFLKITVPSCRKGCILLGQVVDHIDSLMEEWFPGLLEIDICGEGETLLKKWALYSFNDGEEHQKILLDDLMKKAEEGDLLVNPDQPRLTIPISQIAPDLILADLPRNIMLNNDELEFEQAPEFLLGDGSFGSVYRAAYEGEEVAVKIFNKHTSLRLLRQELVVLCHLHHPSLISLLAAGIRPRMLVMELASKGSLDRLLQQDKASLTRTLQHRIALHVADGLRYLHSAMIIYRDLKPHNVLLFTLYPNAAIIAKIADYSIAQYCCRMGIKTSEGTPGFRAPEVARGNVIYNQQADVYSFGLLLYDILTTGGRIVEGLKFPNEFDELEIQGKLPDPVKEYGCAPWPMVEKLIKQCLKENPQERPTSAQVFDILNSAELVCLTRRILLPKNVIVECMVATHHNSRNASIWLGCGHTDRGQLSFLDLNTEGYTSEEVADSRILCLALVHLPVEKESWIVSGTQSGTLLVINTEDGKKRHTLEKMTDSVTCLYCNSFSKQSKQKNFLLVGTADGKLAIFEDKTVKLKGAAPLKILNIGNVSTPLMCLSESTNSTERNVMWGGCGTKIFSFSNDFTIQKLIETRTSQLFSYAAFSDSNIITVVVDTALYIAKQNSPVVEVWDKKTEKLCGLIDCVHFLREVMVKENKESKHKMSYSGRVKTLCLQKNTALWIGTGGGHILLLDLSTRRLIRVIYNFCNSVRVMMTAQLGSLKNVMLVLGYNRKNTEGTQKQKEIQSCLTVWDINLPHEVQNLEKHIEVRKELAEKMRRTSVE
Description: as §1

MAK = target: T25, MAK (Homo sapiens, UniProt P20794)
T25 construct: purchased Eurofins/DiscoverX KINOMEscan scanMAX
Description: as §1

MYLK = target: T26, MYLK (Homo sapiens, UniProt Q15746)
T26 construct: purchased Eurofins/DiscoverX KINOMEscan scanMAX
Description: as §1

NEK4 = target: T27, NEK4 (Homo sapiens, UniProt P51957)
T27 construct: purchased Eurofins/DiscoverX KINOMEscan scanMAX
Description: as §1

PFPK5(P.falciparum) = target: T28, PFPK5(P.falciparum) (Plasmodium falciparum, UniProt P61075)
T28 construct: purchased Eurofins/DiscoverX KINOMEscan scanMAX
Description: as §1

PIK3C2G = target: T29, PIK3C2G (Homo sapiens, UniProt O75747)
T29 construct: purchased Eurofins/DiscoverX KINOMEscan scanMAX
Description: as §1

PKN2 = target: T30, PKN2 (Homo sapiens, UniProt Q16513)
T30 construct: purchased Eurofins/DiscoverX KINOMEscan scanMAX
Description: as §1

RET(V804M) = target: T31, RET(V804M) (Homo sapiens, UniProt P07949, V804M)
T31 construct: purchased Eurofins/DiscoverX KINOMEscan scanMAX
Description: as §1

[4] = target: T32, RPS6KA5(Kin.Dom.2-C-terminal) (Homo sapiens, UniProt O75582)
T32 construct: RPS6KA5(Kin.Dom.2-C-terminal); purchased Eurofins/DiscoverX KINOMEscan scanMAX
Description: as §1

[5] = target: T33, RSK4(Kin.Dom.1-N-terminal) (Homo sapiens, UniProt Q9UK32)
T33 construct: RSK4(Kin.Dom.1-N-terminal); purchased Eurofins/DiscoverX KINOMEscan scanMAX
T33 sequence (Q9UK32 73-400 limits assumed): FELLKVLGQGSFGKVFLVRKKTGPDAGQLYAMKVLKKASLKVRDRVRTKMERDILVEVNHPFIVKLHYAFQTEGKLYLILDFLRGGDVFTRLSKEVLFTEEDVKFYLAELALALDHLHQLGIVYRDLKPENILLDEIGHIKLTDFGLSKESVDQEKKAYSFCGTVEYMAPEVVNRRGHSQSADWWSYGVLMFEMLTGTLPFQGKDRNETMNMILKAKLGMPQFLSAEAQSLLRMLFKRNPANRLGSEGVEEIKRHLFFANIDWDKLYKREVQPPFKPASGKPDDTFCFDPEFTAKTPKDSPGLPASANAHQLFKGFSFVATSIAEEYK
Description: as §1

SIK2 = target: T34, SIK2 (Homo sapiens, UniProt Q9H0K1)
T34 construct: purchased Eurofins/DiscoverX KINOMEscan scanMAX
Description: as §1

STK36 = target: T35, STK36 (Homo sapiens, UniProt Q9NRP7)
T35 construct: purchased Eurofins/DiscoverX KINOMEscan scanMAX
Description: as §1

STK39 = target: T36, STK39 (Homo sapiens, UniProt Q9UEW8)
T36 construct: purchased Eurofins/DiscoverX KINOMEscan scanMAX
Description: as §1

TRKA = target: T37, TRKA (Homo sapiens, UniProt P04629)
T37 construct: purchased Eurofins/DiscoverX KINOMEscan scanMAX
Description: as §1

TRKC = target: T38, TRKC (Homo sapiens, UniProt Q16288)
T38 construct: DNA tag (qPCR barcode); purchased Eurofins/DiscoverX KINOMEscan scanMAX
Description: as §1

TTK = target: T39, TTK (Homo sapiens, UniProt P33981)
T39 construct: DNA tag (qPCR barcode); purchased Eurofins/DiscoverX KINOMEscan scanMAX
Description: as §1

ZAK = target: T40, ZAK (Homo sapiens, UniProt Q9NYL2)
T40 construct: purchased Eurofins/DiscoverX (KINOMEscan scanMAX service)
Description: as §1

CN1CCN(C2CCC(n3cc(-c4ccc(Oc5ccccc5)cc4)c4c(N)ncnc43)CC2)CC1 (stereo not shown) [A-419259]
% Control [1]: 1.6%
% Control [2]: 0.85%
% Control (ACVR1B): 100%
% Control (ACVRL1): 100%
% Control (ALK): 29%
% Control (ASK2): 62%
% Control (BMPR1A): 100%
% Control (BMPR1B): 92%
% Control (BMX): 30%
% Control (BRAF): 66%
% Control (CAMKK1): 100%
% Control (CDK7): 28%
% Control (CIT): 79%
% Control (CLK4): 100%
% Control (CSK): 2.1%
% Control (CSNK1E): 1.1%
% Control (CSNK1G3): 100%
% Control (DLK): 54%
% Control (ERK1): 100%
% Control (FGFR4): 62%
% Control (HASPIN): 70%
% Control [3]: 100%
% Control (LIMK2): 91%
% Control (LRRK2(G2019S)): 100%
% Control (MAK): 100%
% Control (MYLK): 94%
% Control (NEK4): 100%
% Control (PFPK5(P.falciparum)): 78%
% Control (PIK3C2G): 100%
% Control (PKN2): 100%
% Control (RET(V804M)): 21%
% Control [4]: 96%
% Control [5]: 68%
% Control (SIK2): 19%
% Control (STK36): 18%
% Control (STK39): 100%
% Control (TRKA): 16%
% Control (TRKC): 45%
% Control (TTK): 3.5%
% Control (ZAK): 13%
